Data on seven compounds can be found in patent publication US8927500B2, “Peptidomimetic macrocycles” (Aileron Therapeutics, Inc., priority 2012, dated 2015).

Each structure is given as a SMILES string. Where a SMILES comes first, the peptide text is derived from it. Bridges are numbered along the chain shown (N, C = ends). [ ]: non-standard residue; d: D form. Phe(4-COOH) = N[C@@H](Cc1ccc(C(=O)O)cc1)C(=O)O; R8 = C=CCCCCCC[C@@](C)(N)C(=O)O; Cba = N[C@@H](CC1CCC1)C(=O)O; S5 = C=CCCC[C@](C)(N)C(=O)O

Data set [1] in a line: Circular dichroism (CD) analysis of alpha-helicity. The data set is classed as physicochemical. To be noted: for Molar Ellipticity 50% TFE (222 in 50% TFE): CD buffer with 50% TFE; for Molar Ellipticity 50% TFE (222 in 50% TFE) / Molar Ellipticity Benign (222 in 0% TFE): 222 nm, 4° C.; for Molar Ellipticity Benign (222 in 0% TFE): benign CD buffer pH 2, 0% TFE; for % Helix benign compared to 50% TFE parent (CD): benign buffer; for Molar Ellipticity TFE-Molar Ellipticity Benign: difference 50% TFE minus benign.
Description: To assay the helicity of peptidomimetic macrocycles, the compounds are dissolved in an aqueous solution (e.g. 50 mM potassium phosphate solution at pH 7, or distilled H2O, to concentrations of 25-50 μM). Circular dichroism (CD) spectra are obtained on a spectropolarimeter (e.g., Jasco J-710) using standard measurement parameters (e.g. temperature, 20° C.; wavelength, 190-260 nm; step resolution, 0.5 nm; speed, 20 nm/sec; accumulations, 10; response, 1 sec; bandwidth, 1 nm; path length, 0.1 cm). […] A Peltier temperature controller was used to maintain temperature control of the optical cell. Results are expressed as mean molar ellipticity [0] […] Peptide concentrations were determined by amino acid analysis. Stock solutions of peptides were prepared in benign CD buffer (20 mM phosphoric acid, pH 2). The stocks were used to prepare peptide solutions of 0.05 mg/ml in either benign CD buffer or CD buffer with 50% trifluoroethanol (TFE) for analyses in a 10 mm pathlength cell. […] The average of six scans was reported.

Data set [2] addresses MDM2 (Homo sapiens, UniProt Q00987). Put plainly: Competitive fluorescence polarization assay for MDM2. The format is binding. To be noted: competitive FP assay, MDM2; for IC50: read-out: IC50 (MDM2); for Ki: read-out: Ki (MDM2).
For data set [3], the target named is T1, MDMX (Homo sapiens, UniProt O15151).
T1 sequence (O15151 1-125): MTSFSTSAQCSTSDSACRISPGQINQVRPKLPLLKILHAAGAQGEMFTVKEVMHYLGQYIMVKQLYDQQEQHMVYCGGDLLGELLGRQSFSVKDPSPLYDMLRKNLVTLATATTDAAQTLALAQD
The data set is described as follows: Competitive fluorescence polarization assay for MDMX. The data set is classed as binding. To be noted: competitive FP assay; for IC50: read-out: IC50 (MDMX); for Ki: read-out: Ki (MDMX).

Data set [4] deals with Caspase 3. Put plainly: Caspase 3 detection assay in SJSA1 cells. The conditions noted are these: 48 h, Caspase 3 activation over DMSO-treated cells; for caspase 0.3 uM: 0.3 uM peptide; for caspase 3 uM: 3 uM peptide; for caspase 10 uM: 10 uM peptide; for caspase 30 uM: 30 uM peptide; for caspase 1 uM: 1 uM peptide. The data set is classed as cell-based.
The test system of data set [5] is SJSA-1 cells. The data set is described as follows: Cell lysis by peptidomimetic macrocycles (LDH release). The data set is classed as cell-based. To be noted: 1 h at 37C.
The nature of data set [6]: MCF-7 xenograft study, body weight, deaths and tolerability. The format is in vivo, mice. The text has this: A negative control stapled peptide.
The subject of data set [7] is SJSA-1 cells. The data set is described as follows: Cell viability assay (MTT), SJSA-1. To be noted: in words.
The subject of data set [8] is MCF-7 breast cancer xenograft. Put plainly: MCF-7 breast cancer xenograft study, tumor growth inhibition. To be noted: 30 mg/kg 3×/wk iv.
Description: This formulation was prepared once for the duration of the study.
Each group was assigned to a different treatment regimen.
During the dosing period the mice were weighed and tumors measured 1-2 times per week.

MDM2, sequence (Q00987 1-125): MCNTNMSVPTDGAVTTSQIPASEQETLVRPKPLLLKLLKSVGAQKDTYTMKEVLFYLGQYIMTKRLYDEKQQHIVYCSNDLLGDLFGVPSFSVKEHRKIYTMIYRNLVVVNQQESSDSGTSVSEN

Consider `CC(=O)N[C@@H](CC(C)C)C(=O)N[C@H](C(=O)N[C@@H](Cc1ccccc1)C(=O)N[C@]1(C)CCCCCCC=CCCC[C@@](C)(C(=O)N[C@@H](C)C(=O)N[C@@H](C)C(=O)N[C@@H](C)C(=O)N[C@H](C)C(N)=O)NC(=O)[C@H](CC(C)C)NC(=O)[C@H](CCC(N)=O)NC(=O)[C@H](C)NC(=O)[C@H](Cc2c[nH]c3ccccc23)NC(=O)[C@H](Cc2ccc(O)cc2)NC(=O)[C@H](C)NC1=O)[C@@H](C)O` (single isomer, unassigned) [compound 230], for which, in data set [1], the “% Helix 50% TFE compared to 50% TFE parent (CD)” value (from here on “% Helix 50% TFE”) came out at 123.9%, the “Molar Ellipticity 50% TFE (222 in 50% TFE)” value (from here on “Molar Ellipticity 50% TFE”) is given as −17974 deg cm2 dmol-1, the “Molar Ellipticity Benign (222 in 0% TFE)” value is −213.2 deg cm2 dmol-1 and the “% Helix benign compared to 50% TFE parent (CD)” value (“% Helix benign” below) came to 1.5%. For the same compound, the “Molar Ellipticity TFE-Molar Ellipticity Benign” value in data set [1] is reported as −17760.8 deg cm2 dmol-1. For the same compound, in data set [2], the IC50 is less than 10 nM and the Ki is less than 10 nM. Moreover, in data set [3], the IC50 lay in the range of 10 to 100 nM and the Ki is less than 10 nM. Besides, in data set [4], the “caspase 0.3 uM” value was determined as 1, the “caspase 3 uM” value worked out at 2, the “caspase 10 uM” value is reported as 3 and the “caspase 30 uM” value is reported as 11. Further, in data set [5], the “6.25 uM % Lysed cells (1 h LDH)” value is on record as 0.5%, the “25 uM % Lysed cells (1 h LDH)” value was determined as 0% and the “50 uM % Lysed cells (1 h LDH)” value is 3%.

As for `CC[C@H](C)[C@H](NC(=O)[C@H](C)NC(=O)[C@H](C)NC(=O)[C@]1(C)CCC/C=C/CCCCCC[C@@](C)(NC(=O)[C@H](Cc2ccccc2)NC(=O)[C@@H](NC(=O)[C@H](CC(C)C)NC(C)=O)[C@@H](C)O)C(=O)N[C@@H](CCC(=O)O)C(=O)N[C@@H](Cc2ccc(C(=O)O)cc2)C(=O)N[C@@H](Cc2c[nH]c3ccccc23)C(=O)N[C@@H](C)C(=O)N[C@@H](CCC(N)=O)C(=O)N[C@@H](CC2CCC2)C(=O)N1)C(=O)N[C@H](C)C(N)=O` [SP249, Ac-L T F $er8 E F4coohWAQCba $e AA-I-a-NH2] (Ac-LTF[R8]E[Phe(4-COOH)]WAQ[Cba][S5]AAI[dA]-NH2; staple (E) 4-11), the “mice died during treatment” value in data set [6] ([…] 3×/wk iv, 10 mice per group) is given as 4.

Regarding `CC(=O)N[C@@H](CC(C)C)C(=O)N[C@H](C(=O)N[C@@H](C)C(=O)N[C@]1(C)CCCCCCC=CCCC[C@@](C)(C(=O)N[C@@H](CO)C(=O)N[C@@H](C)C(=O)N[C@@H](C)C(N)=O)NC(=O)[C@H](CC2CCC2)NC(=O)[C@H](CCC(N)=O)NC(=O)[C@H](C)NC(=O)[C@H](Cc2c[nH]c3ccccc23)NC(=O)[C@H](Cc2ccc(O)cc2)NC(=O)[C@H](CCC(=O)O)NC1=O)[C@@H](C)O` [SP252], in data set [6] (30 mg/kg 3×/wk iv), the “% BW Change” value is given as “+3.3%”, the “No. with ≧10% BW Loss” value is reported as 0/10 and the “No. with ≧20% BW Loss or death” value was 0/10. Besides, the “tolerability of dosing regimen” value in data set [6] (30 mg/kg 3×/wk iv, in words) is given as “well-tolerated”. Besides, in data set [7], the “activity in the SJSA-1 in vitro viability assay” value is listed as “no activity”. In data set [7] (in vitro assays not specified), the “activity in in vitro assays” value was “no appreciable activity”. Also, the “TGI by Day 32” value in data set [8] worked out at 88%.

Take `CC(=O)N[C@@H](CC(C)C)C(=O)N[C@H](C(=O)N[C@@H](Cc1ccccc1)C(=O)N[C@]1(C)CCCCCCC=CCCC[C@@](C)(C(=O)N[C@@H](CO)C(=O)N[C@@H](C)C(=O)N[C@@H](Cc2ccccc2)C(N)=O)NC(=O)[C@H](CC(C)C)NC(=O)[C@H](CCC(N)=O)NC(=O)[C@H](C)NC(=O)[C@H](Cc2c[nH]c3ccccc23)NC(=O)[C@H](Cc2ccc(O)cc2)NC(=O)[C@H](C)NC1=O)[C@@H](C)O` [compound 7] (Ac-LTF[R8]AYWAQL[S5]SAF-NH2; staple 4-11): in data set [1], the “% Helix 50% TFE” value was 137.3%, the “Molar Ellipticity 50% TFE” value is on record as −19921.4 deg cm2 dmol-1, the “Molar Ellipticity Benign (222 in 0% TFE)” value is on record as 124 deg cm2 dmol-1 and the “% Helix benign” value is listed as −0.9%. The “Molar Ellipticity TFE-Molar Ellipticity Benign” value in data set [1] is −20045.4 deg cm2 dmol-1. Besides, in data set [2], the IC50 is 10 to 100 nM and the Ki is less than 10 nM. Also, in data set [3], the IC50 was 10 to 100 nM and the Ki lay in the range of 10 to 100 nM. For the same compound, in data set [4], the “caspase 0.3 uM” value stood at 0.93, the “caspase 1 uM” value turned out to be 1.4, the “caspase 3 uM” value is recorded as 5.08 and the “caspase 10 uM” value is on record as 21.7. Moreover, the “caspase 30 uM” value in data set [4] is reported as 23.96. Moreover, in data set [5], the “6.25 uM % Lysed cells (1 h LDH)” value amounted to 0%, the “25 uM % Lysed cells (1 h LDH)” value is 0% and the “50 uM % Lysed cells (1 h LDH)” value amounted to 0%.

Take `CCCC[C@H](NC(=O)[C@H](C)NC(=O)[C@H](C)NC(=O)[C@]1(C)CCC/C=C/CCCCCC[C@@](C)(NC(=O)[C@H](Cc2ccccc2)NC(=O)[C@@H](NC(=O)[C@H](CC(C)C)NC(C)=O)[C@@H](C)O)C(=O)N[C@@H](C)C(=O)N[C@@H](Cc2ccc(O)cc2)C(=O)N[C@@H](Cc2c[nH]c3ccccc23)C(=O)N[C@@H](C)C(=O)N[C@@H](CCC(N)=O)C(=O)N[C@@H](CC(C)C)C(=O)N1)C(=O)N[C@@H](C)C(N)=O` [compound 69]: in data set [1], the “% Helix 50% TFE” value is listed as 148.2%, the “Molar Ellipticity 50% TFE” value is on record as −21509.7 deg cm2 dmol-1, the “Molar Ellipticity Benign (222 in 0% TFE)” value is listed as −102.6 deg cm2 dmol-1 and the “% Helix benign” value is reported as 0.7%. In data set [2], the half-maximal inhibitory concentration (IC50) is 10 to 100 nM and the inhibition constant (Ki) is less than 10 nM. In data set [3], the IC50 fell in the range of 100 to 1000 nM and the Ki is 10 to 100 nM. Further, in data set [4], the “caspase 0.3 uM” value was 4.34, the “caspase 1 uM” value is reported as 9.51, the “caspase 3 uM” value was 16.39 and the “caspase 10 uM” value was 26.59. The “caspase 30 uM” value in data set [4] is reported as 26.11. Further, in data set [5], the “6.25 uM % Lysed cells (1 h LDH)” value was 1%, the “25 uM % Lysed cells (1 h LDH)” value was −0.5% and the “50 uM % Lysed cells (1 h LDH)” value is on record as 5%.

`CC[C@H](C)[C@H](NC(=O)[C@H](C)NC(=O)[C@H](C)NC(=O)[C@]1(C)CCC/C=C/CCCCCC[C@@](C)(NC(=O)[C@H](Cc2ccccc2)NC(=O)[C@@H](NC(=O)[C@H](CC(C)C)NC(C)=O)[C@@H](C)O)C(=O)N[C@@H](C)C(=O)N[C@@H](Cc2ccc(O)cc2)C(=O)N[C@@H](Cc2c[nH]c3ccccc23)C(=O)N[C@@H](C)C(=O)N[C@@H](CCC(N)=O)C(=O)N[C@@H](CC(C)C)C(=O)N1)C(=O)N[C@H](C)C(N)=O` [compound 71]: in data set [1], the “% Helix 50% TFE” value is reported as 123.7%, the “Molar Ellipticity 50% TFE” value is −17957 deg cm2 dmol-1, the “Molar Ellipticity Benign (222 in 0% TFE)” value is given as −121.2 deg cm2 dmol-1 and the “% Helix benign” value came out at 0.8%. Moreover, the “Molar Ellipticity TFE-Molar Ellipticity Benign” value in data set [1] is −17835.9 deg cm2 dmol-1. Further, in data set [2], the IC50 was in the range of 10 to 100 nM and the Ki was less than 10 nM. Moreover, in data set [3], the half-inhibitory concentration (IC50) was 100 to 1000 nM and the Ki fell in the range of 10 to 100 nM. Also, in data set [4], the “caspase 0.3 uM” value was 0.95, the “caspase 1 uM” value is 1.02, the “caspase 3 uM” value was found to be 3.68 and the “caspase 30 uM” value came to 23.52. In data set [5], the “6.25 uM % Lysed cells (1 h LDH)” value was 0%, the “25 uM % Lysed cells (1 h LDH)” value is recorded as 0% and the “50 uM % Lysed cells (1 h LDH)” value turned out to be 0%.

As for `CC(=O)N[C@@H](CC(C)C)C(=O)N[C@H](C(=O)N[C@@H](Cc1ccccc1)C(=O)N[C@]1(C)CCCCCCC=CCCC[C@@](C)(C(=O)N[C@@H](C)C(=O)N[C@@H](C)C(=O)N[C@@H](C)C(=O)N[C@@H](C)C(=O)N[C@H](C)C(N)=O)NC(=O)[C@H](CC(C)C)NC(=O)[C@H](CCC(N)=O)NC(=O)[C@H](C)NC(=O)[C@H](Cc2c[nH]c3ccccc23)NC(=O)[C@H](Cc2ccc(O)cc2)NC(=O)[C@H](C)NC1=O)[C@@H](C)O` [compound 233], in data set [1], the “% Helix 50% TFE” value amounted to 131.2%, the “Molar Ellipticity 50% TFE” value is recorded as −19032.6 deg cm2 dmol-1, the “Molar Ellipticity Benign (222 in 0% TFE)” value is on record as −477.9 deg cm2 dmol-1 and the “% Helix benign” value was found to be 3.3%. In addition, the “Molar Ellipticity TFE-Molar Ellipticity Benign” value in data set [1] was −18554.7 deg cm2 dmol-1. In data set [4], the “caspase 0.3 uM” value was found to be 6, the “caspase 1 uM” value is given as 8, the “caspase 3 uM” value came out at 17 and the “caspase 10 uM” value is reported as 22. In addition, in data set [4], the “caspase 30 uM” value is given as 23. Also, in data set [5], the “6.25 uM % Lysed cells (1 h LDH)” value is 2.5%, the “25 uM % Lysed cells (1 h LDH)” value was 3.5% and the “50 uM % Lysed cells (1 h LDH)” value is 6%.
